From the supplement of paper PMC10307832

How the values were obtained:
Test in all cases: relative viability (nuclei count vs DMSO), 5 days (fraction); higher = more cells survive
[1] = compound: CN(C)CC1=CC(=CC=C1)N=C(C2=CC=CC=C2)C3=C(NC4=C3C=CC(=C4)C(=O)N(C)C)O + C[C@]1(O)C[C@@H](c2nc(-c3ccc4ccc(-c5ccccc5)nc4c3)c3c(N)nccn32)C1 [Linsitinib] (partner 1 µM)
In short: (§1)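 Lung cancer cell lines were pin-tool dosed in 1536-well plates on the day after seeding, with either a lone drug or a fixed anchor-drug dose plus five library-drug doses (not always all listed) in √10 steps. Nuclei were counted on 4× images after 5 days. Relative viability is the ratio of treated-well to vehicle-well nuclei counts, with each value a median of duplicate plates.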

[2] = compound: CN(C)CC1=CC(=CC=C1)N=C(C2=CC=CC=C2)C3=C(NC4=C3C=CC(=C4)C(=O)N(C)C)O + Cc1nc(NC(=O)N2CCC[C@H]2C(N)=O)sc1-c1ccnc(C(C)(C)C(F)(F)F)c1 [Alpelisib] (partner 2 µM)
In short: as §1

[3] = compound: CN(C)CC1=CC(=CC=C1)N=C(C2=CC=CC=C2)C3=C(NC4=C3C=CC(=C4)C(=O)N(C)C)O + COc1cccc2cc(-c3nc([C@H]4CC[C@H](C(=O)O)CC4)n4ncnc(N)c34)[nH]c12 [OSI-027] (partner 0.5 µM)
In short: as §1

[4] = compound: CN(C)CC1=CC(=CC=C1)N=C(C2=CC=CC=C2)C3=C(NC4=C3C=CC(=C4)C(=O)N(C)C)O + CS(=O)(=O)CCNCc1ccc(-c2ccc3ncnc(Nc4ccc(OCc5cccc(F)c5)c(Cl)c4)c3c2)o1 [Lapatinib] (partner 2 µM)
In short: as §1

Cell Line | relative viability ([1]; first compound 0.08 µM) | relative viability ([1]; first compound 0.253 µM) | relative viability ([1]; first compound 0.8 µM) | relative viability ([1]; first compound 2.53 µM) | relative viability ([1]; first compound 8 µM) | relative viability ([2]; first compound 0.08 µM) | relative viability ([2]; first compound 0.253 µM) | relative viability ([2]; first compound 0.8 µM) | relative viability ([2]; first compound 2.53 µM) | relative viability ([2]; first compound 8 µM) | relative viability ([3]; first compound 0.08 µM) | relative viability ([3]; first compound 0.253 µM) | relative viability ([3]; first compound 0.8 µM) | relative viability ([3]; first compound 2.53 µM) | relative viability ([3]; first compound 8 µM) | relative viability ([4]; first compound 0.08 µM) | relative viability ([4]; first compound 0.253 µM) | relative viability ([4]; first compound 0.8 µM) | relative viability ([4]; first compound 2.53 µM) | relative viability ([4]; first compound 8 µM)
HCC-78 | 0.62 | 0.452 | 0.475 | 0.535 | 0.511 | 0.364 | 0.324 | 0.356 | 0.363 | 0.318 | 0.394 | 0.406 | 0.508 | 0.406 | 0.377 | 0.785 | 1.48 | 0.722 | 0.707 | 0.741
HCC-366 | 0.737 | 0.602 | 0.657 | 0.473 | 0.354 | 0.397 | 0.386 | 0.42 | 0.393 | 0.344 | 0.999 | 1.1 | 0.971 | 0.878 | 0.414 | 0.949 | 0.939 | 1.07 | 1.01 | 1.08
HCC-827 | 0.984 | 0.944 | 1.03 | 0.925 | 0.937 | 1.06 | 1.04 | 0.93 | 0.923 | 0.875 | 0.795 | 0.712 | 0.749 | 0.686 | 0.699 | 0.218 | 0.191 | 0.197 | 0.191 | 0.191
HOP-62 | 1.11 | 1.08 | 0.99 | 1.1 | 1.16 | 0.995 | 1.13 | 0.93 | 1.03 | 0.973 | 0.852 | 0.847 | 0.827 | 0.769 | 0.799 | 1.03 | 1.11 | 1.14 | 1.05 | 0.946
IA-LM | 0.666 | 0.645 | 0.773 | 0.767 | 0.544 |  | 0.806 | 0.942 | 0.88 | 1.03 |  |  |  |  |  | 0.781 | 0.916 | 0.872 | 0.948 | 1.07
LC-2-ad | 0.844 | 0.745 | 0.884 | 0.808 | 0.593 | 0.896 | 0.86 | 0.857 | 0.848 | 0.672 | 0.935 | 0.73 | 0.867 | 0.732 | 0.614 | 1.03 | 0.893 | 0.879 | 0.876 | 0.981
LCLC-97TM1 | 0.212 | 0.193 | 0.179 | 0.148 | 0.231 | 0.286 | 0.203 | 0.293 | 0.324 | 0.343 | 0.611 | 0.627 | 0.543 | 0.436 | 0.656 | 1.14 | 1.02 | 1.13 | 1.37 | 0.574
LCLC-103H | 1.15 | 1.11 | 0.941 | 0.904 | 0.908 | 0.987 | 0.923 | 0.938 | 0.876 | 0.98 | 0.452 | 0.538 | 0.493 | 0.493 | 0.452 |  |  |  |  | 
LK-2 | 0.546 | 0.517 | 0.514 | 0.723 | 0.222 | 1.2 | 0.924 | 0.897 | 0.928 | 0.881 | 0.189 | 0.228 | 0.241 | 0.211 | 0.185 | 1.05 | 0.97 | 0.898 | 0.841 | 0.637
LOU-NH91 | 0.975 | 0.946 | 0.68 | 0.925 | 0.952 | 0.743 | 0.72 | 0.577 | 0.718 | 0.696 | 0.691 | 0.713 | 0.561 | 0.762 | 0.689 | 0.721 | 0.836 | 0.75 | 0.743 | 0.697
LU99A | 0.546 | 0.545 | 0.496 | 0.534 | 0.485 | 0.486 | 0.579 | 0.497 | 0.559 | 0.364 | 0.245 | 0.346 | 0.341 | 0.297 | 0.286 | 1.06 | 1 | 1.01 | 0.922 | 0.756
LXF-289 | 0.935 | 0.931 | 0.955 | 0.857 | 0.915 | 1.04 | 1 | 0.966 | 0.971 | 0.941 | 0.769 | 0.731 | 0.707 | 0.713 | 0.639 | 0.888 | 0.887 | 0.893 | 0.86 | 0.815
NCI-H441 | 0.593 | 0.539 | 0.507 | 0.496 | 0.418 | 0.717 | 0.761 | 0.642 | 0.834 | 0.495 | 0.522 | 0.703 | 0.74 | 0.568 | 0.39 |  |  |  |  | 
NCI-H522 |  |  |  |  |  |  |  |  |  |  | 0.68 | 0.693 | 0.694 | 0.651 | 0.643 |  |  |  |  | 
NCI-H1299 | 1.05 | 0.969 | 1.02 | 0.946 | 0.972 | 0.953 | 1.04 | 1.05 | 1.04 | 1.02 |  |  |  |  |  | 0.957 | 0.914 | 0.977 | 0.875 | 0.915
NCI-H1648 |  |  |  |  |  |  |  |  |  |  | 0.266 |  | 0.308 | 0.277 | 0.252 |  |  |  |  | 
NCI-H1650 |  |  |  |  |  |  |  |  |  |  | 0.756 | 0.686 | 0.612 | 0.714 | 0.524 | 0.688 | 0.828 | 0.86 | 0.736 | 0.647
NCI-H1703 | 0.625 | 0.781 | 0.701 | 0.61 | 0.192 | 0.354 | 0.282 | 0.41 | 0.22 | 0.184 |  |  |  |  |  | 1.12 | 1.22 | 1.48 | 0.762 | 0.296
NCI-H2170 |  |  |  |  |  | 0.809 | 0.827 | 0.514 | 0.714 | 0.578 | 0.739 | 0.75 | 0.465 | 0.69 | 0.676 | 0.278 | 0.277 | 0.286 | 0.273 | 0.271
NCI-H2342 |  |  |  |  |  |  |  |  |  |  | 0.63 | 0.535 | 0.621 | 0.708 | 0.65 |  |  |  |  | 
SW 900 |  |  |  |  |  |  |  |  |  |  | 0.677 | 0.652 | 0.663 | 0.664 | 0.537 |  |  |  |  | 
